Test results published in patent US20220160714A1, “METHODS FOR TREATING COLORECTAL CANCER” (ICAHN SCHOOL OF MEDICINE AT MOUNT SINAI, priority 2019, published 2022).
Counter-ions that a name gives are not always drawn.

System: patient's personalized Drosophila model 006.1
Assay: Trametinib combination drug screen (Table 4B, experimental pupae numbers)
Type: in vivo
Experimental: After food was solidified, a mixture of experimental and control embryos (at a 1:2 ratio based on expected Mendelian ratios) were aliquoted into each drug/food tube (15 μl/tube). […] Embryos for drug screening were generated from the following cross in cages: w/Y; UAS-006.1; UAS ago^RNAi UAS-apc^RNAi/Stub-gal80-T Xw UAS-dicer2; +; byn-gal4 UAS-GFP tub-gal80^ts/TM6, Hu, Tb. Embryos were obtained from each cage for 4-5 consecutive days by providing daily a fresh apple juice plate with yeast paste. Egg lays were performed at 22° C. to minimize transgene expression during embryogenesis to prevent embryonic defects or lethality that could not potentially be rescued by drug feeding. After embryos were aliquoted, drug tubes were transferred to 25° C. to induce transgene expression. After 2 weeks, the number of surviving experimental pupae (EP) were counted in each tube.
DMSO and Trametinib alone served as controls. […] Statistical analysis was performed as described above.

[1] = drug screened in combination with trametinib
[2] = drug screened in combination with trametinib, mean of 8 replicates

Structure (SMILES)	EP (raw experimental pupae numbers), replicate 1 [1]	EP (raw experimental pupae numbers), replicate 2 [1]	EP (raw experimental pupae numbers), replicate 3 [1]	EP (raw experimental pupae numbers), replicate 4 [1]	EP (raw experimental pupae numbers), replicate 5 [1]	EP (raw experimental pupae numbers), replicate 6 [1]	EP (raw experimental pupae numbers), replicate 7 [1]	EP (raw experimental pupae numbers), replicate 8 [1]	EP mean [2]	EP mean (in vivo)
COc1ccc2c(c1)c(CC(=O)O)c(C)n2C(=O)c1ccc(Cl)cc1 [indomethacin]	0	0	0	0	1	0	0	0	0.125	–
COc1cc2c(cc1OC)CC(=O)N(CCCN(C)C[C@H]1Cc3cc(OC)c(OC)cc31)CC2 [ivabradine HCl]	0	0	0	0	2	1	0	0	0.375	–
CC(C)(C)c1cc(C(C)(C)C)c(NC(=O)c2c[nH]c3ccccc3c2=O)cc1O [ivacaftor]	0	0	7	0	3	3	1	2	2	–
CC(C)C[C@H](NC(=O)CNC(=O)c1cc(Cl)ccc1Cl)B(O)O [ixazomib]	1	1	1	0	1	2	0	0	0.75	–
O=C(O)CSc1nnc(Br)n1-c1ccc(C2CC2)c2ccccc12 [lesinurad sodium]	0	0	1	0	1	2	1	0	0.625	–
Cc1ccc(NC(=O)C2(c3ccc4c(c3)OC(F)(F)O4)CC2)nc1-c1cccc(C(=O)O)c1 [lumacaftor]	0	4	4	1	2	1	1	4	2.125	–
CC(=O)O[C@]1(C(C)=O)CC[C@H]2[C@@H]3C=C(C)C4=CC(=O)CC[C@]4(C)[C@H]3CC[C@@]21C [megestrol acetate]	0	1	1	0	1	2	1	2	–	1
Cc1cnc(NC(=O)C2=C(O)c3ccccc3S(=O)(=O)N2C)s1 [meloxicam]	0	0	0	3	1	1	0	1	–	–
CN(C)C(=N)N=C(N)N [metformin HCl]	0	0	0	1	1	0	2	2	–	0.75
CN1Cc2c(N)cccc2C(c2ccccc2)C1 (stereo not shown) [nomifensine maleate]	0	0	0	0	1	4	0	1	0.75	–
C=CC(=O)Nc1cc(Nc2nccc(-c3cn(C)c4ccccc34)n2)c(OC)cc1N(C)CCN(C)C [osimertinib]	0	0	0	0	0	0	3	1	0.5	–
Fc1ccc([C@@H]2CCNC[C@H]2COc2ccc3c(c2)OCO3)cc1 [paroxetine HCl]	0	0	0	0	1	2	0	1	0.5	–
CC(C)(C)N.CCC[C@H](N[C@@H](C)C(=O)N1[C@H](C(=O)O)C[C@@H]2CCCC[C@@H]21)C(=O)OCC [perindropil erbumine]	0	0	3	3	5	1	2	2	–	2
CC(C(=O)O)c1ccc2c(c1)Cc1cccnc1O2 (stereo not shown) [pranaprofen]	0	1	1	1	1	3	1	3	1.375	–
Cc1cc(/C=C/c2ccc3cc(N(C)C)ccc3[n+]2C)c(C)n1-c1ccccc1 [pyrvinium]	4	1	6	4	2	1	3	0	–	–
CC(C)N(CCCCOCC(=O)NS(C)(=O)=O)c1cnc(-c2ccccc2)c(-c2ccccc2)n1 [selexipag]	3	0	1	0	2	4	4	2	2	–
CN[C@@H]1[C@@H](O)[C@@H](O[C@@H]2[C@@H](O)[C@H](O[C@H]3OC(CN)=CC[C@H]3N)[C@@H](N)C[C@H]2N)OC[C@]1(C)O [sisomicin]	1	1	1	1	2	1	0	0	0.875	–
CC1=C(CC(=O)O)c2cc(F)ccc2/C1=C\c1ccc([S+](C)[O-])cc1 (stereo not shown) [sulindac]	0	0	1	2	1	1	0	2	–	0.875
CNS(=O)(=O)Cc1ccc2[nH]cc(CCN(C)C)c2c1 [sumatriptan succinate]	0	0	1	1	1	1	1	1	0.75	–
Cc1ccc(-n2nccn2)c(C(=O)N2CCN(c3nc4cc(Cl)ccc4o3)CC[C@H]2C)c1 [suvorexant]	0	0	3	1	5	1	1	3	–	1.75
